In patent publication US12492210B2, “Tricyclic compounds and their use” (HUTCHISON MEDIPHARMA LIMITED, priority 2019, dated 2025):

Columns and labels:
MAPK1(ERK2) enzyme = target: T1, MAPK1(ERK2) enzyme (Homo sapiens, UniProt P28482); assay: Z-Lyte Kinase Assay of ERK2; type: biochemical; conditions: read-out: Example 18 IC50
T1 construct: purchased Invitrogen PV3313
Protocol: Example 18: Z-Lyte Kinase Assay of ERK2
1. Materials and Reagents:
2. Reaction Steps: Plate Map
3. Solution Preparation • 1) 1.33× Kinase Buffer: Dilute 5× Kinase Buffer to 1.33× with ddH2O • 2) 4× Test Compounds: Serially dilute the test compounds to 4 folds of the concentrations desired, keeping the DMSO concentration at 8%. The final concentrations are 1, 0.33, 0.11, 0.037, 0.012, 0.004, 0.0014, 0.00046 μM, and the final concentration of DMSO is 2%. • 3) Kinase/Peptide Mixture (P/K solution): Prepare Kinase/Peptide Mixture by diluting the kinase to 0.6 μg/ml and the Z-LYTE™ Ser/Thr3 peptide to 4 μM in 1.33× Kinase Buffer. Mix gently by pipetting. • 4) Phospho-peptide Solution (PP solution): Add 0.4 μl of Z-LYTE™ Ser/Thr3 Phospho-peptide to 99.6 μl of 1.33× Kinase Buffer. • 5) ATP Solution: Prepare ATP Solution by diluting the 10 mM of ATP in 1.33× Kinase Buffer to 100 μM. • 6) Development Solution: Dilute Development Reagent A with Development Buffer as 1:1024. 4. Reaction • 1) Kinase reaction (10 μl of Volume) • a. In a 384-well plate, add 2.5 μl of 4× test Cpds to each well except C1, C2, C3 wells Add 2.5 μl of 8% DMSO to C1, C2, C3 wells • b. Put the plate on ice • c. Add 5 μl of P/K mixture to each test Cpd wells and C1, C2 wells • d. Add 5 μl of PP Solution to C3 well • e. Add 2.5 μl of 1.33× kinase buffer to C1 and C3 wells • f. Add 2.5 μl of 4×ATP Solution to each test Cpd wells and C2 well, respectively. Shake the plate for 30 Sec and centrifuge (1500 rpm, 1 min) • g. Seal the plate to protect from the light and incubate the plate for 1 hour at RT (25-30° C.) • 2) Development reaction • a. Add 5 μl of the Development solution to all wells • b. Shake the plate for 30 sec and centrifuge (1500 rpm, 1 min) • c. Seal the plate to protect from the light and incubate the plate for 1 hour at RT (25-30° C.) • 3) Stop and read • a. Add 5 μl of the Stop reagent to all wells • b. Shake the plate for 30 sec and centrifuge (1500 rpm, 1 min) • c. Measure the value of coumarin (Ex400 nm, Em445 nm) and fluorescein (Ex400 nm, Em520 nm), respectively. 5. Data Analysis Emission Ratio(ER)=Coumarin Emission (445 nm)/Fluorescein Emission (520 nm) % Phosphorylation=1−[ER×C3520nm−C3445nm]/[(C1445nm−C3445nm)+ER×(C3520nm−C1520nm)] Inhibition rate (IR)=1−% Photest Cpd% PhoC2 6. IC50 Value: determine IC50 with add-in software for Microsoft Excel, XLfit™ (version 2.0) from ID Business Solutions (Guildford, UK)

[1] = test system: p-RSK (Thr359) in colo205 cells; assay: p-RSK (Thr359) Acumen Assay in Colo205; type: cell-based; conditions: Homo sapiens, COLO 205, 1 hour compound incubation, read-out: Example 19 IC50
Protocol: Example 19: p-RSK (Thr359) Acumen Assay in Colo205
• Phospho-p90RSK (Thr359) (D1E9) Rabbit mAb: cell signal, #8753 • Alexa Fluor® 488 donkey anti-rabbit IgG: invitrogen, #A-21206 • Propidium Iodide: Sigma, #p4170 • 4% Paraformaldehyde: SCRC, #DF021 • 10% Triton X-100: PIERCE, #28314 • 96-well plate (black with clear bottom): BD, #354640 • Acumen® eX3 (A Multilaser Microplate Cytometer For Enhanced High Content Screening): TTP LabTech 3. Acumen Assay Protocol • Seed 4000 cells in 100 μl 10% FBS/well into 96-well plate, incubate at 37° C., 5% CO2, overnight. • Dilute the compound to 3, 1, 0.33, 0.11, 0.037, 0.012, 0.004, 0.001 μM, keeping the DMSO concentration at 5%. Add 10 μl of diluted compound per well and incubate at 37° C., 5% CO2 for 1 hour. • Add 100 μl of 4% pre-warmed Paraformaldehyde (2% final), and incubate for 45 min at room temperature. • Remove paraformaldehyde solutions. Add 100 μl of ice-cold 0.1% Triton to fixed cells at room temperature for 30 min. • Wash twice with 150 μl PBS and incubate with 100 μl blocking buffer (1% BSA, in PBS) for 2˜3 hours at room temperature, seal the plate. • Wash once with PBS and incubate with 35 μl p-RSK (Thr359) (1:1000 dilution) overnight at 4° C. Seal the plate. • Wash twice with PBS and incubate for 1.5 hours at room temperature with 35 μl of Alexa Fluor® 488 donkey anti-rabbit IgG at a 1:1,000 dilution in antibody dilution buffer (0.1% BSA, in PBS). Cover plate in foil to keep out of light. • Wash twice with 150 μl PBS. Add 35 μl of 1.5 μM Propidium Iodide stock to each well to determine cell number, seal the plate. • Incubate at room temperature for 30 min. Load the plate into the Acumen Explorer and scan with the appropriate instrument settings. 4. Data Analysis
[formula] Note: • Percentagecompound well represents the positive percentage of cells treated by compound. • Percentagemin well represents the positive percentage of cells treated with 3 uM GDC0994. • Percentagemax well represents the positive percentage of cells without compounds treatment. 5. IC50 Value: determine IC50 with add-in software for Microsoft Excel, XLfit™ (version 2.0) from ID Business Solutions (Guildford, UK)

T1 sequence (P28482 whole entry): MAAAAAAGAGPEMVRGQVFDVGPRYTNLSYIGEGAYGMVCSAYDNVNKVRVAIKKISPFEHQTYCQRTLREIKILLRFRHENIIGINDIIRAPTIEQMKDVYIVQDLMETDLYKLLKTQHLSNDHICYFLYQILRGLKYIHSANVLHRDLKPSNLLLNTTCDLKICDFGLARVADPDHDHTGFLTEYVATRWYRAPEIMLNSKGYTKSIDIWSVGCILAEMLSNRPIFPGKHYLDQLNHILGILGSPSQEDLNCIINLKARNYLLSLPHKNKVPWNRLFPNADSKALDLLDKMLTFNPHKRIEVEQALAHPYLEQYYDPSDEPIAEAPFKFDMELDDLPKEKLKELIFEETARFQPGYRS

SMILES | IC50 (MAPK1(ERK2) enzyme) | IC50 [1]
Cc1cnc(Nc2c(F)cnn2C)nc1-c1cc2n(c1)C[C@H](C)n1c-2nnc1C(F)(F)c1ccccc1F [Compound 290] | 5 to 10 nM | > 100 nM
Cn1nccc1Nc1cc(-c2cc3n(c2)C[C@H](CF)n2c-3nnc2C2(F)CC2)c(Cl)cn1 [Compound 56] | ≤ 5 nM | ≤ 100 nM
Cc1cnc(Nc2ccnn2C)nc1-c1cc2n(c1)C[C@H](C)n1c-2nnc1C(F)(F)c1ccccc1Cl [Compound 125] | 5 to 10 nM | ≤ 100 nM
Cc1cnc(Nc2ccnn2C)nc1-c1cc2n(c1)C[C@H](C)n1c-2nnc1C(F)(F)c1ccccc1F [Compound 88] | ≤ 5 nM | ≤ 100 nM
Cc1cnc(Nc2ccnn2C)nc1-c1cc2n(c1)C[C@H](C)n1c-2nnc1C(F)(F)c1cccc(F)c1 [Compound 89] | ≤ 5 nM | ≤ 100 nM
Cn1nccc1Nc1cc(-c2cc3n(c2)CCCn2c(Cn4cc(Cl)cn4)nnc2-3)c(Cl)cn1 [Compound 73] | ≤ 5 nM | > 100 nM
C[C@H]1Cn2c(nnc2C2(C(F)(F)F)CCC2)-c2cc(-c3cc(Nc4ccnn4C)ncc3Cl)cn21 [Compound 50] | ≤ 5 nM | > 100 nM
Cn1nccc1Nc1cc(-c2cc3n(c2)C[C@H](F)Cn2c-3nnc2C(F)(F)C(F)(F)F)c(Cl)cn1 [Compound 115] | 5 to 10 nM | > 100 nM
CO[C@H]1Cn2cc(-c3cc(Nc4ccnn4C)ncc3Cl)cc2-c2nnc(C3(C(F)(F)F)CCC3)n2C1 [Compound 165] | 5 to 10 nM | ≤ 100 nM
Cc1cnc(Nc2ccnn2C)cc1-c1cc2n(c1)C[C@H](C(F)F)n1c-2nnc1C(F)(F)c1ccccc1Cl [Compound 204] | > 10 nM | ≤ 100 nM
Cc1cnc(Nc2ccnn2C)nc1-c1cc2n(c1)C[C@@H](C)n1c-2nnc1C1(C(F)(F)F)CCC1 [Compound 239] | ≤ 5 nM | > 100 nM
Cc1cnc(Nc2ccnn2C)cc1-c1cc2n(c1)CC(F)(F)Cn1c-2nnc1C1(C(F)(F)F)CCC1 [Compound 117] | ≤ 5 nM | ≤ 100 nM
Cn1nccc1Nc1cc(-c2cc3n(c2)CC(F)(F)Cn2c(COC(F)(F)F)nnc2-3)c(Cl)cn1 [Compound 107] | ≤ 5 nM | > 100 nM
Cc1cnc(Nc2ccnn2C)nc1-c1cc2n(c1)C[C@H](CF)n1c-2nnc1C(F)(F)c1ccc(F)cc1F [Compound 188] | 5 to 10 nM | ≤ 100 nM
Cn1nccc1Nc1cc(-c2cc3n(c2)C[C@H](F)Cn2c-3nnc2C2(C(F)(F)F)CCC2)c(Cl)cn1 [Compound 123] | ≤ 5 nM | ≤ 100 nM
Cc1cnc(Nc2ccnn2C)cc1-c1cc2n(c1)CC(F)(F)Cn1c-2nnc1C1(C(F)F)CC(F)(F)C1 [Compound 169] | ≤ 5 nM | ≤ 100 nM
Cn1nccc1Nc1nccc(-c2cc3n(c2)CCCn2c(Cc4ccccc4Cl)nnc2-3)n1 [Compound 8] | ≤ 5 nM | > 100 nM
Cc1cnc(Nc2ccnn2C)cc1-c1cc2n(c1)C[C@H](CF)n1c-2nnc1C(F)(F)c1cccc(F)c1F [Compound 180] | > 10 nM | ≤ 100 nM

SMILES | IC50 (MAPK1(ERK2) enzyme) | IC50 [1]
Cn1nccc1Nc1cc(-c2cc3n(c2)CC2(COC2)Cn2c-3nnc2C(F)(F)C(F)F)c(Cl)cn1 [Compound 304, 5-chloro-N-(1-methyl-1H-pyrazol-5-yl)-4-(3′-(1,1,2,2-tetrafluoroethyl)-5′H,7′H-spiro[oxetane-3,6′-pyrrolo[1,2-a][1,2,4]triazolo[3,4-c][1,4]diazepin]-10′-yl)pyridin-2-amine] | ≤ 5 nM | ≤ 100 nM
Cn1nccc1Nc1cc(-c2cc3n(c2)[C@H]2CC[C@H](C2)n2c-3nnc2C2(C(F)(F)F)CCC2)c(Cl)cn1 [Compound 267] | > 10 nM | > 100 nM
Cn1nccc1Nc1cc(-c2cc3n(c2)C[C@H](F)Cn2c-3nnc2C2(C(F)(F)F)CCC2)c(F)cn1 [Compound 85] | ≤ 5 nM | ≤ 100 nM
C[C@H]1Cn2cc(-c3ccnc(Nc4ccnn4C)n3)cc2-c2nnc(C(F)(F)c3ccccc3Cl)n21 [Compound 95] | 5 to 10 nM | ≤ 100 nM
COc1cc(Nc2ncc(C)c(-c3cc4n(c3)C[C@H](C)n3c-4nnc3C(F)(F)c3ccccc3F)n2)c(C)cn1 [Compound 294] | > 10 nM | > 100 nM
Cn1nccc1Nc1cc(-c2cc3n(c2)C[C@H](CF)n2c-3nnc2C(F)(F)n2cc(Cl)cn2)c(F)cn1 [Compound 164] | ≤ 5 nM | ≤ 100 nM
CC(C)Nc1cc(-c2cc3n(c2)CCCn2c-3nnc2C2(C(F)(F)F)CCC2)c(Cl)cn1 [Compound 230] | 5 to 10 nM | > 100 nM
Cc1cnc(Nc2ccnn2C)nc1-c1cc2n(c1)CCCn1c(Cc3ccccc3F)nnc1-2 [Compound 6] | 5 to 10 nM | ≤ 100 nM
C[C@H]1CCn2cc(-c3cc(Nc4ccnn4C)ncc3Cl)cc2-c2nnc(C3(C(F)(F)F)CCC3)n21 [Compound 262] | 5 to 10 nM | ≤ 100 nM
Cc1cnc(Nc2ccnn2C)nc1-c1cc2n(c1)C[C@H](C)n1c-2nnc1C(F)(F)n1cc(Cl)cn1 [Compound 102] | ≤ 5 nM | ≤ 100 nM
COC[C@H]1Cn2cc(-c3cc(Nc4ccnn4C)ncc3C)cc2-c2nnc(C(F)(F)c3ccccc3Cl)n21 [Compound 201] | > 10 nM | ≤ 100 nM
Cc1cnc(Nc2ccnn2C)nc1-c1cn2c(n1)-c1nnc(C(F)(F)c3ccccc3Cl)n1[C@@H](C)C2 [Compound 222] | ≤ 5 nM | ≤ 100 nM
C[C@H]1Cn2cc(-c3cc(Nc4ccnn4C)ncc3Cl)cc2-c2nnc(C(F)(F)n3cc(F)cn3)n21 [Compound 108] | ≤ 5 nM | ≤ 100 nM
Cc1cnc(Nc2ccnn2C)cc1-c1cc2n(c1)C[C@H](CF)n1c-2nnc1C(F)(F)n1ccccc1=O [Compound 124] | ≤ 5 nM | ≤ 100 nM
C[C@H]1CCn2cc(-c3cc(Nc4ccnn4C)ncc3Cl)cc2-c2nnc(C3(C(C)(F)F)CCC3)n21 [Compound 105] | 5 to 10 nM | ≤ 100 nM
Cn1nccc1Nc1nccc(-c2cc3c4nnc(COc5ccccc5Cl)n4ccn3c2)n1 [Compound 40] | ≤ 5 nM | ≤ 100 nM
Cc1cnc(Nc2ccnn2C)cc1-c1cc2n(c1)[C@H]1CC[C@H](C1)n1c-2nnc1C(F)(F)C(F)F [Compound 67] | ≤ 5 nM | ≤ 100 nM
